# Laboratory results taken from US11357786B2, “Synthetic disugar hydrocarbons as natural analogs to control microbial behaviors” (Syracuse University, priority 2014, dated 2022).
# Assays:
# Format in all cases: cell-based, Pseudomonas aeruginosa
# PAO1-EGFP biofilm = assay: Biofilm on steel coupons, fluorescence / CLSM; conditions: 160 μM, 24 h, LB media
# Protocol: A crystal violet (CV) assay was used to measure the amount of PAO1 biofilm formed after 24 h of bacterial inoculation. The fluorescence of green fluorescent proteins (GFP) expressed by PAO1-GFP was measured to directly quantify bacterial adhesion on polystyrene black 96 well plates with and without maltose derivatives after 2 h of bacterial inoculation. To evaluate the potential of maltose derivatives as both anti-biofilm and anti-adhesion agents, they were compared to a brominated furanone (BF8) known to inhibit biofilm formation, and two generic surfactants, sodium dodecyl sulfate (SDS) and tetra (ethylene glycol) monododecyl ether (C12EG4OH). […] P. aeruginosa strain PAO1-EGFP that constitutively producing green fluorescent protein was allowed to form biofilm on sterile steel coupons.
# Confocal laser scanning microscopy (CLSM) based biofilm inhibition assay. Steel coupons (˜1×1 cm) were washed with EtOH, dried under a stream of nitrogen and then sterilized in an autoclave. Overnight culture of PAO1/EGFP (OD600 ˜1.0) grown in LB media (supplemented with 300 μg/mL of carbenicillin), was sub-cultured to OD600˜0.01 and then the OD600 was allowed to reach ˜0.1. Aliquot (600 μL) of PAO1/EGFP subculture OD600˜0.1 was then added into the wells of a 24-well micro titer plate. DSHs were then introduced into the assigned wells to reach a resultant concentration of 160 μM. Bacterial sub-culture with no agent served as positive control. Sterile steel coupons were then placed into the wells and the plates were wrapped with saran wrap and incubated for 24 h at 37° C. under static conditions. After 24 hours, the steel coupons were removed and washed by dipping in PBS buffer (2 washes) and the dried by holding with a forcep and gently dabbing the edge on a bleached paper (KIM wipes). The dried steel coupons were viewed under confocal laser scanning microscope (CLSM). Images were taken at 4 random locations on each steel coupons. Z-stacked images were also taken to determine the relative thickness of the biofilm.
# [1] = test system: nonswarming P. aeruginosa mutant rhlA; assay: Swarming motility of nonswarming rhlA mutant on soft agar (reactivation / agonist assay); conditions: for Swarming reactivation of rhlA mutant: 110 μM in soft agar
# Excerpt: Using nonswarming mutant to screen for swarming agonists and wild type P. aeruginosa for swarming antagonists. The transposon mutant, rhlA (genotype, rhlA-E08:ISphoA/hah)39 of P. aeruginosa (PAO1), that impairs the gene that is responsible for synthesizing rhamnolipids is completely incapable of a swarming motility. […] Based on this inference, a rhlA mutant was used in a swarming experiment to screen the saccharide-hydrocarbons for agonists that can reactivate the swarming motility of rhlA.
# (§1) Swarm agar plates were based on M8 medium supplemented with 0.2% glucose, 0.5% casamino acid, 1 mM MgSO4 and […]. 17 For each set of experiment all the swarm plates were poured from same batch of agar and allowed to dry for 1 h before inoculation of bacteria. Bacterial culture (3 μl) (wild type PAO1 or rhlA mutant) with OD600 between […] was inoculated on the solidified agar plates. Swarm agar plates were incubated at 37° C. for 12 h and then incubated for additional 12 h at room temp. Chronological images of swarm plates were taken using a camera. To measure swarming area, sizes of the petridish in all swarming images were adjusted to a pre-assigned diameter and images were printed on copying paper (Xerox-business 4200). Weight of a 1 cm^2 copy paper square was roughly ˜8.0 mg. swarming images on the copy paper were cut and weighed, the swarm area was calculated by dividing the weight of image by weight of 1 cm^2 square (8 mg).
# (§2) Swarm agar plates were made using M8 medium supplemented with 0.2% glucose, 0.5% casamino acid, 1 mM MgSO4 and solidified with 0.5% Bacto agar. 24 Bacterial culture with OD600 between 0.4 to 0.6 was inoculated as 3 μl aliquots. Swarm agar plates were incubated at 37° C. for 12 h and then incubated for additional 12 h at rt. For each set of experiment all the swarm plates were poured from same batch of agar and allowed to dry for 1 h before inoculation of bacteria.
# PAO1 biofilm = assay: Crystal violet based static biofilm inhibition assay, DSHs in LB media (Examples 2 and 4); conditions: for Inhibition of PAO1 biofilm formation (surface attached): 160 μM, 24 h, LB media; for Anti-biofilm activity (biofilm inhibition): concentration not given
# Protocol: The ability of DSHs was tested to inhibit Pseudomonas aeruginosa adhesion, biofilm and to disperse pre-formed biofilm. To quantify the amount of PAO1/EGFP attached on the surface of micro titer plates with or without the synthesized DSHs, fluorescence emitted by green fluorescent proteins (GFP) was quantified (see supporting info for details). Crystal violet (CV) based static biofilm assay (see supporting info) was used to screen the anti-biofilm potencies of all synthesized agents. Both surface attached (SA) (FIG. 17) and total (SA+air-liquid interface) biofilm of P. aeruginosa was quantified. […] CV assays were also used to quantify the amount of P. aeruginosa biofilm remaining after dispersion experiments (FIG. 19). Initially, all agents were screen for anti-biofilm activities (both inhibition and dispersion) at 160 μM. […] All reported biofilm inhibition results are an average of 4 identical wells.
# The effect that DSHs have on the adhesion of PAO1-EGFP on polystyrene surface (microtiter plate) was also examined. PAO1-EGFP is a P. aeruginosa strain that constitutively expresses green fluorescent protein. In the adhesion assays, PAO1-EGFP was grown in microtiter plate for 24-hours in LB-media with (160 μM) or without DSHs. After 24-hours, the fluorescent signal obtained from surface adhered PAO1-EGFP was measured. Percent reduction in fluorescence was calculated by comparing fluorescent signal from PAO1-EGFP grown in LB-media with the signal from wells that had DSHs (FIG. 29A). To study the effect of DSHs on biofilm formation, Pseudomonas aeruginosa (PAO1) was grown in LB-media with (160 μM) or without DSHs at 37° C. under static conditions within wells of microtiter plates. After 24 hours, the surface attached biofilms adhering to the bottom of the wells were stained with crystal-violet dye and the biofilm was quantified by measuring absorbance at 600 nm (OD600). […] Similar to inhibition, the surface attached biofilm after dispersion with DSHs was quantified with crystal-violet staining and absorbance measurement at 600 nm, except that for dispersion, biofilm was first grown for 1 day in just LB-media without any DSHs after which DSHs were added and plates were incubated for additional 24 hours followed by quantification (FIG. 29B).
# Crystal violet (CV) based-biofilm inhibition assay. Inhibitory effect of all synthesized disaccharide hydrocarbons on biofilm formation of Pseudomonas aeruginosa (wild type PAO1) was determined by static biofilm inhibition assay using crystal violet staining. Overnight culture of PAO1 were sub cultured in LB media to OD600 of 0.01 and further the OD600 was allowed to reach ˜0.1. The bacterial sub-culture (200 μL) was then added into the wells of a microtiter plate. Predetermined concentrations of DSHs were added to respective wells containing sub culture by pipetting out fixed volume of sterile aqueous stock solutions (except DβL (7), SPOT, (15) and 2-ODαC (17), which were introduced as stocks prepared in H2O […] and EtOH (90:10) solutions). The microtiter plates were then wrapped in GLAD Press n′ Seal® (saran wrap) and further incubated under stationary conditions for 24 h at 37° C. After 24 h incubation, the culture media was discarded by pipetting carefully (without disrupting biofilm), the plate was then washed once with sterile water (200 μL) and allowed to dry at 37° C. for ˜30 mins. Microtiter plates were then stained with 0.1% aqueous solution of crystal violet (CV) (200 μL) at rt for ˜30 mins. Following this, the CV stain was removed and plate was again washed with sterile water (200 μL). Resultant CV stain in the well was then solubilized by adding 100 μL of 30% AcOH solution (in water) and mixing gently by pipetting.
# wild type PAO1 = assay: Swarming motility of wild type PAO1 on soft agar (antagonist assay); conditions: for Swarming of wild type PAO1: 110 μM in soft agar; for Effect on PAO1 swarming: concentration not given
# Protocol: In contrast, the wild type P. aeruginosa produces the rhamnolipids and is capable of swarming on soft agar gel (˜0.5% agar). […] We note that saccharide hydrocarbons may also promote the swarming motility, but such promotions are less unambiguous than the inhibition for wild type PAO1. Such promotion will be unambiguous in the agonist assay using the nonswarming mutant rhlA.
# as §1, §2
# [2] = 85 μM in soft agar (0.5%), 24 h
smiles,measurement,setting,value
"CCCCCCCCCCO[C@@H]1O[C@H](CO)[C@@H](O[C@@H]2O[C@H](CO)[C@@H](O)[C@H](O)[C@H]2O)[C@H](O)[C@H]1O [DeβC (2), decyl-β-cellobioside]",PAO1-EGFP biofilm on stainless steel coupons (CLSM),PAO1-EGFP biofilm,bacterial surface coverage comparable to that of control
same,Swarming motility of rhlA mutant,[1]; [2],did not show a noticeable effect on the swarming motility
same,Swarming reactivation of rhlA mutant,[1]; 24 h,incapable of reactivating the swarming
same,Swarming motility of rhlA mutant,"[1]; 160 μM in soft agar, 24 h",weak activation of rhlA swarming motility
same,Reactivation of swarming motility of rhlA mutant,[1]; concentration not given,activated the swarming motility of rhlA mutant
same,Increase of reactivated swarming ring of rhlA with respect to swarming ring of PAO1 without agents,[1]; increasing from 85 to 160 μM,38%
same,Inhibition of PAO1 biofilm formation (surface attached),PAO1 biofilm,insignificant biofilm inhibition and no
same,Inhibition of PAO1 biofilm formation (surface attached),"PAO1 biofilm; listed as 2: DeβC, 160 µM",complete loss of anti-biofilm activity
same,Anti-biofilm activity (biofilm inhibition),PAO1 biofilm,did not show significant inhibition of PAO1 biofilm
same,Anti-biofilm activity (biofilm inhibition),PAO1 biofilm; listed as DβC (2),did not show anti-biofilm activities
same,Swarming motility of wild type PAO1,"wild type PAO1; 85 μM in soft agar, 24 h",did not show a noticeable effect on the swarming motility
same,Swarming of wild type PAO1,wild type PAO1; 24 h,did not significantly affect the swarm pattern
same,Swarming motility of wild type PAO1,"wild type PAO1; 160 μM in soft agar, 24 h",weak promotion of swarming motility of wild type PAO1
same,Effect on PAO1 swarming,wild type PAO1,no apparent effect on PAO1 swarming
"CCCCCCCCCCCCO[C@@H]1O[C@H](CO)[C@@H](O[C@@H]2O[C@H](CO)[C@@H](O)[C@H](O)[C@H]2O)[C@H](O)[C@H]1O [DβC (4), dodecyl-β-cellobioside]",PAO1-EGFP biofilm on stainless steel coupons (CLSM),PAO1-EGFP biofilm,decreased the fluorescence signal significantly
same,Concentration at which tendril formation was induced in rhlA mutant,[1],~56 µM
same,Concentration of first inhibition of rhlA swarming,[1],around 50 μM
same,Swarming motility of rhlA mutant,[1]; 40 μM,activated the swarming motility of rhlA mutant
same,Swarming motility of rhlA mutant,[1]; [2],strong reactivation of the swarming motility in rhlA mutant
same,Swarming reactivation of rhlA mutant,"[1]; 24 h, listed as 4: DbC",fully restores swarming with fine tendrils
same,Swarming reactivation of rhlA mutant,"[1]; 24 h, listed as 4: DβC",fully restored the swarming of rhlA
same,Concentration of another activation of rhlA swarming,[1]; after first inhibition,about 160 μM
same,Concentration of activity reversal for swarming promotion of rhlA mutant (transition concentration),[1]; soft agar,^a~45-56 μM
same,Lowest concentration that reactivates swarming of rhlA mutant,[1]; soft agar,≤ 20 µM
same,Concentration of activity reversal for swarming promotion of rhlA mutant (transition concentration),"[1]; soft agar, listed as 4",45 to 56 µM
same,Inhibition of PAO1 biofilm formation (surface attached),"PAO1 biofilm; listed as 4: DβC, 160 µM",60%
same,Inhibition of PAO1 biofilm formation (surface attached),PAO1 biofilm; listed as DISC (4),62%
same,IC50,"PAO1 biofilm; Example 4, FIG. 30",~72 µM
same,Concentration at which tendrils were induced in PAO1,wild type PAO1,20 µM
same,Swarming motility of wild type PAO1,wild type PAO1; 20 μM,stronger inhibition than rhamnolipids
same,Swarming area of PAO1 smaller than control,wild type PAO1; 85 μM,~46%
same,Swarming motility of wild type PAO1,"wild type PAO1; 85 μM in soft agar, 24 h",causing significant amount of tendril formation
same,Swarming area of wild type PAO1,"wild type PAO1; 85 μM, control ~24 cm2",~13 cm2
same,Swarming of wild type PAO1,"wild type PAO1; 24 h, listed as 4: DbC",promotes tendril formation
same,Swarming of wild type PAO1,"wild type PAO1; 24 h, listed as 4: DβC",induced more tendril formation
same,Effect on PAO1 swarming,wild type PAO1,induced tendril formation in the swarming pattern of PAO1
same,Concentration of activity reversal for swarming inhibition of PAO1 (transition concentration),wild type PAO1; soft agar,~20 to 30 µM
"CCCCCCCCCCCCO[C@@H]1O[C@H](CO)[C@@H](O[C@@H]2O[C@H](CO)[C@H](O)[C@H](O)[C@H]2O)[C@H](O)[C@H]1O [DβL (7), dodecyl-β-lactoside]",PAO1-EGFP biofilm on stainless steel coupons (CLSM),PAO1-EGFP biofilm,bacterial surface coverage comparable to that of control
same,Swarming reactivation of rhlA mutant,[1]; 24 h,incapable of reactivating the swarming
same,Inhibition of PAO1 biofilm formation (surface attached),PAO1 biofilm,insignificant biofilm inhibition
same,Inhibition of PAO1 biofilm formation (surface attached),"PAO1 biofilm; listed as 7: DβL, 160 µM",severely compromised the anti-biofilm activity
same,Anti-biofilm activity (biofilm inhibition),PAO1 biofilm,low activities
same,Swarming of wild type PAO1,wild type PAO1; 24 h,did not significantly affect the swarm pattern
